Experimental data published in US6455727B1, “Process for preparing carbetapentane tannate” (Jame Fine Chemicals, Inc., priority 2001, dated 2002).
Counter-ions that a name gives are not always drawn. Like-named read-outs stand apart in the source and are kept apart here.

Key:
[1] = solubility in water, alcohols and methylene chloride; assay type: physicochemical; details: description of product and starting materials
[2] = background statement, cited from earlier work; for solubility in alcohol: alcohol(s)

Row | Molecule | solubility in alcohols [1] | solubility in methylene chloride [1] | solubility in water [1] | solubility in water [2] | solubility in alcohol [2]
1 | carbetapentane tannate | soluble | insoluble | slightly soluble |  | 
2 | CCN(CC)CCOCCOC(=O)C1(c2ccccc2)CCCC1 [carbetapentane, 2-(diethylaminoethoxy)ethyl-1-phenyl-1-cyclopentanecarboxylate] | soluble | soluble | insoluble | insolubility | 
3 | O=C(OC[C@H]1O[C@@H](OC(=O)c2cc(O)c(O)c(OC(=O)c3cc(O)c(O)c(O)c3)c2)[C@H](OC(=O)c2cc(O)c(O)c(OC(=O)c3cc(O)c(O)c(O)c3)c2)[C@@H](OC(=O)c2cc(O)c(O)c(OC(=O)c3cc(O)c(O)c(O)c3)c2)[C@@H]1OC(=O)c1cc(O)c(O)c(OC(=O)c2cc(O)c(O)c(O)c2)c1)c1cc(O)c(O)c(OC(=O)c2cc(O)c(O)c(O)c2)c1 [tannic acid] | soluble | insoluble | soluble | highly soluble | highly soluble
4 | CCN(CC)CCOCCOC(=O)C1(c2ccccc2)CCCC1 [carbetapentane citrate] |  |  |  | freely soluble | slightly soluble
